These results are taken from patent US7718688B2, “Nitrobenzindoles and their use in cancer therapy” (Auckland Uniservices Limited, priority 2004, dated 2010).

Data set [1] in a line: One-electron reduction potential E(1) by pulse radiolysis. Conditions: determined by pulse radiolysis. The class given is physicochemical.
The subject of data set [2] is SKOV3: human ovarian carcinoma cell line. Briefly: Proliferation IC50 assay, oxic/hypoxic, SKOV3. Conditions: for pIC50: Homo sapiens, SK-OV-3, 4 h exposure under aerobic conditions; for HCR (hypoxic cytotoxicity ratio) SKOV3: IC50(aerobic)/IC10(hypoxic); for HCR SKOV3: IC50(aerobic)/IC50(hypoxic). The class given is cell-based.
Data set [3] deals with HT29: human colon cancer cell line. Briefly: Proliferation IC50 assay, oxic/hypoxic, HT29. Format: cell-based. Conditions: for pIC50: Homo sapiens, HT-29, 4 h exposure under aerobic conditions; for HCR (hypoxic cytotoxicity ratio) HT29: IC50(aerobic)/IC10(hypoxic); for HCR HT29: IC50(aerobic)/IC50(hypoxic).

Each structure is given as a SMILES string. pIC50: −log10 of the molar value.

One may read the pIC50 as the IC50 on a negative log10 scale, so that one unit is a factor of ten. A low value points to a high IC50. For the compound `CN(C)CCOc1ccc2[nH]c(C(=O)N3CC(CCl)c4c3cc([N+](=O)[O-])c3cccc([N+](=O)[O-])c43)cc2c1` (stereo not shown) [Compound 52, 1-(Chloromethyl)-3-{5-[2-(dimethylamino)ethoxy]indol-2-carbonyl}-5,9-dinitro-1,2-dihydro-3H-benzo[e]indole], in data set [1], the “E(1): one-electron reduction potential” value is recorded as −477 ± 7 mV. In addition, in data set [2] (Table 3), the pIC50 is 5.92 and the “HCR (hypoxic cytotoxicity ratio) SKOV3” value worked out at 1.5. In addition, in data set [3] (Table 3), the pIC50 was 5.85 and the “HCR (hypoxic cytotoxicity ratio) HT29” value was determined as 1.3.

In the case of `CN(C)CCOc1ccc2[nH]c(C(=O)N3CC(CCl)c4c3cc([N+](=O)[O-])c3c([N+](=O)[O-])cccc43)cc2c1` (stereo not shown) [Compound 2, 1-(Chloromethyl)-3-(5-[2-(dimethylamino)ethoxy]indol-2-carbonyl)-5,6-dinitro-1,2-dihydro-3H-benzo[e]indole], the “E(1): one-electron reduction potential” value in data set [1] is listed as −467 ± 8 mV. In addition, in data set [2] (Table 3), the negative-log IC50 (pIC50) is 5.39 and the “HCR (hypoxic cytotoxicity ratio) SKOV3” value turned out to be 2.9. Also, in data set [3] (Table 3), the negative-log IC50 (pIC50) is 5.55 and the “HCR (hypoxic cytotoxicity ratio) HT29” value turned out to be 2.2.

Broadly, the melting point is the temperature of the solid-liquid transition. Consider `CC(=O)c1ccc2c3c(cc([N+](=O)[O-])c2c1)N(C(=O)c1cc2cc(OCCN(C)C)ccc2[nH]1)CC3CCl` (stereo not shown) [Compound 12, 7-Acetyl-1-(chloromethyl)-3-{5-[2-(dimethylamino)ethoxy]indol-2-carbonyl}-5-nitro-1,2-dihydro-3H-benzo[e]indole], for which the melting point was > 350 °C. Also, in data set [2] (Table 3), the negative logarithm of the IC50 (pIC50) is 6.19 and the “HCR (hypoxic cytotoxicity ratio) SKOV3” value stood at 4.0. In data set [3] (Table 3), the negative-log IC50 (pIC50) is 6.77 and the “HCR (hypoxic cytotoxicity ratio) HT29” value is on record as 1.5.

As to `CN(C)CCOc1ccc2[nH]c(C(=O)N3CC(CCl)c4c3cc([N+](=O)[O-])c3cc(N)ccc43)cc2c1` (stereo not shown) [Compound 10, 7-Amino-1-(chloromethyl)-3-{5-[2-(dimethylamino)ethoxy]indol-2-carbonyl}-5-nitro-1,2-dihydro-3H-benzo[e]indole], the melting point was > 300 °C. In data set [2] (Table 3), the pIC50 was 5.60 and the “HCR (hypoxic cytotoxicity ratio) SKOV3” value is listed as 2.0. In data set [3] (Table 3), the pIC50 is 5.74 and the “HCR (hypoxic cytotoxicity ratio) HT29” value was determined as 2.4.

For the compound `CN(C)CCOc1ccc2[nH]c(C(=O)N3CC(CCl)c4c3cc(N)c3cc(C(N)=O)ccc43)cc2c1` (stereo not shown) [Compound 55, 5-Amino-1-(chloromethyl)-3-{5-[2-(dimethylamino)ethoxy]indol-2-carbonyl}-1,2-dihydro-3H-benzo[e]indole-7-carboxamide], the melting point is 232 to 236 °C (dec.). Besides, in data set [2] (Table 4), the pIC50 was 7.89 and the “HCR SKOV3” value was 1.0. In data set [3] (Table 4), the pIC50 is 7.21 and the “HCR HT29” value worked out at 1.4.

The compound `CN(C)CCOc1ccc2[nH]c(C(=O)N3CC(S(=O)(=O)NCCO)c4c3cc(N)c3c(CCl)cccc43)cc2c1` (stereo not shown) [Compound 62, 5-Amino-6-(chloromethyl)-3-{5-[2-(dimethylamino)ethoxy]indol-2-carbonyl}-N-(2-hydroxyethyl)-1,2-dihydro-3H-benzo[e]indole-1-sulfonamide] showed a melting point of 225 to 230 °C. For the same compound, in data set [2] (Table 4), the negative-log IC50 (pIC50) was 7.47 and the “HCR SKOV3” value is on record as 1.1. In data set [3] (Table 4), the pIC50 is 7.03 and the “HCR HT29” value was 1.0.

As to `CN(C)CCOc1ccc2[nH]c(C(=O)N3CC(CCl)c4c3cc(N)c3ccc(S(C)(=O)=O)cc43)cc2c1` (stereo not shown) [Compound 64, 5-Amino-1-(chloromethyl)-3-{5-[2-(dimethylamino)ethoxy]indol-2-carbonyl}-8-(methylsulfonyl)-1,2-dihydro-3H-benzo[e]indole], the melting point lay in the range of 235 to 240 °C. In addition, in data set [2] (Table 4), the negative logarithm of the IC50 (pIC50) was 7.74 and the “HCR SKOV3” value is 1.5. Further, in data set [3] (Table 4), the pIC50 is 7.54 and the “HCR HT29” value was determined as 1.9.

`COc1cc2cc(C(=O)N3CC(CCl)c4c3cc([N+](=O)[O-])c3ccc(S(C)(=O)=O)cc43)[nH]c2c(OC)c1OC` (stereo not shown) [Compound 46, 1-(Chloromethyl)-8-(methylsulfonyl)-5-nitro-3-(5,6,7-trimethoxyindol-2-carbonyl)-1,2-dihydro-3H-benzo[e]indole] registered a melting point of 265 °C. For the same compound, in data set [2] (Table 3), the negative logarithm of the IC50 (pIC50) was 4.96 and the “HCR (hypoxic cytotoxicity ratio) SKOV3” value was 4.2. Besides, in data set [3] (Table 3), the negative-log IC50 (pIC50) was 4.85 and the “HCR (hypoxic cytotoxicity ratio) HT29” value stood at 2.5.

In turn, `COc1cc2cc(C(=O)N3CC(CCl)c4c3cc([N+](=O)[O-])c3c([N+](=O)[O-])cccc43)[nH]c2c(OC)c1OC` (stereo not shown) [Compound 1, 1-(Chloromethyl)-5,6-dinitro-3-(5,6,7-trimethoxyindol-2-carbonyl)-1,2-dihydro-3H-benzo[e]indole] showed a melting point of 278 to 279 °C. For the same compound, the pIC50 in data set [2] (Table 3) is < 4.70. In addition, in data set [3] (Table 3), the pIC50 was 4.74 and the “HCR (hypoxic cytotoxicity ratio) HT29” value was <1.

For `COc1cc2cc(C(=O)N3CC(CCl)c4c3cc([N+](=O)[O-])c3ccc(S(N)(=O)=O)cc43)[nH]c2c(OC)c1OC` (stereo not shown) [Compound 48, 1-(Chloromethyl)-5-nitro-3-(5,6,7-trimethoxyindol-2-carbonyl)-1,2-dihydro-3H-benzo[e]indole-8-sulfonamide], the melting point was 264 to 266 °C (dec.). In data set [2] (Table 3), the pIC50 is 4.92 and the “HCR (hypoxic cytotoxicity ratio) SKOV3” value was found to be 2.6. In data set [3] (Table 3), the pIC50 is 4.62 and the “HCR (hypoxic cytotoxicity ratio) HT29” value was determined as 1.9.

Consider `COc1cc2cc(C(=O)N3CC(CCl)c4c3cc(N)c3cc(S(C)(=O)=O)ccc43)[nH]c2c(OC)c1OC` (stereo not shown) [Compound 57, 5-Amino-1-(chloromethyl)-7-(methylsulfonyl)-3-(5,6,7-trimethoxyindol-2-carbonyl)-1,2-dihydro-3H-benzo[e]indole], for which the melting point fell in the range of 266 to 268 °C. In data set [2] (Table 4), the negative logarithm of the IC50 (pIC50) is 7.49 and the “HCR SKOV3” value is reported as 1.2. In data set [3] (Table 4), the negative-log IC50 (pIC50) was 7.49 and the “HCR HT29” value is reported as 0.86.

`COc1ccc(/C=C/C(=O)N2CC(CCl)c3c2cc([N+](=O)[O-])c2cc(S(=O)(=O)NCCO)ccc32)cc1` (stereo not shown) [Compound 37, 1-(Chloromethyl)-N-(2-hydroxyethyl)-3-[(E)-4-methoxycinnamoyl]-5-nitro-1,2-dihydro-3H-benzo[e]indole-7-sulfonamide] returned a melting point of 250 to 251 °C. In data set [2] (Table 3), the pIC50 is 5.33 and the “HCR (hypoxic cytotoxicity ratio) SKOV3” value is recorded as 3.4. Further, in data set [3] (Table 3), the pIC50 was 5.32 and the “HCR (hypoxic cytotoxicity ratio) HT29” value was 1.3.

As to `COc1cc2cc(C(=O)N3CC(CCl)c4c3cc([N+](=O)[O-])c3cc(S(C)(=O)=O)ccc43)[nH]c2c(OC)c1OC` (stereo not shown) [Compound 23, 1-(Chloromethyl)-7-(methylsulfonyl)-5-nitro-3-(5,6,7-trimethoxyindol-2-carbonyl)-1,2-dihydro-3H-benzo[e]indole], the melting point is 296 to 297 °C (dec.). In data set [2] (Table 3), the negative logarithm of the IC50 (pIC50) was 4.77 and the “HCR (hypoxic cytotoxicity ratio) SKOV3” value turned out to be 1.9. Also, in data set [3] (Table 3), the pIC50 is 4.85 and the “HCR (hypoxic cytotoxicity ratio) HT29” value was 2.0.
